Assay results published in ChEMBL document CHEMBL3507680, “University of Dundee, Gates Library screen for HepG2 cell viability”.

Test: Human HepG2 cell viability assay in 384 well format
Type: toxicity, cell-based
Set-up: dose 125 nL, time 70.5 hour; cytotoxicity at 70.5 h: concentration not given beside the values
Settings: HepG2 cells, read-out: Inhibition

Compound | cytotoxicity at 70.5 h
Cc1nc(C2CCCN(C(=O)c3cc(Cl)c[nH]3)C2)sc1C (stereo not drawn) | -2.27%
COc1cccc(C(=O)N2CCCCC2c2nccs2)c1OC (stereo not drawn) | 2.23%
O=C(NCCNc1ncccn1)N1CCN(C2CCCC2)CC1 | -8.5%
COc1cc(C(=O)N2CCCC(c3cc(C)[nH]n3)C2)cc(OC)c1C (stereo not drawn) | 29%
Cc1cnn(CCC(=O)N2CCCC(c3cc(C)[nH]n3)C2)c1 (stereo not drawn) | 49%
COc1c(C2CCCN2CC(=O)Nc2ccncc2)c(C)nn1C (stereo not drawn) | 6.03%
O=C(NCc1nncn1-c1ccccc1)C1CC1 | -1.31%
Cc1ccc(OCCCC(=O)NC(C)c2nnc3n2CCC3)cc1 (stereo not drawn) | -0.817%
Cc1cccc(OCCC(=O)NC(C)c2nnc3n2CCC3)c1 (stereo not drawn) | 2.23%
Cc1ccccc1OCCCC(=O)NC(C)c1nnc2n1CCC2 (stereo not drawn) | -2.09%
CN(C)c1cc(CNC(=O)Nc2cccnc2N2CCCC2)ccn1 | -2.03%
O=C(NCc1ccc2c(c1)OCO2)Nc1cccnc1N1CCCC1 | -2.2%
O=C(NCc1ccc(-n2cncn2)nc1)c1ccc2c(c1)CCC2 | 0.85%
COc1ccc(CNC(=O)Nc2ccc(N3CCCC3)nc2)cc1O | -2.31%
COc1ncccc1NC(=O)NC(C)c1nncn1C (stereo not drawn) | -5.01%
COc1ccc(CNC(=O)Nc2cccnc2N2CCCC2)cc1OC | 20.8%
CC(NC(=O)Nc1ccc(N2CCCC2)nc1)c1nncn1C (stereo not drawn) | 5.27%
COc1ccccc1OCCN1CCCCC1Cn1cncn1 (stereo not drawn) | 23.7%
Cc1nn(C)c(C)c1C1CCCN1CC(=O)Nc1nccs1 (stereo not drawn) | -0.764%
Cc1nn(C)c(C)c1C1CCCN1CC(=O)Nc1cccnc1 (stereo not drawn) | 23.1%
Cc1nnc(NC(=O)CN2CCCC2c2c(C)nn(C)c2C)s1 (stereo not drawn) | 7.87%
Cc1n[nH]c(C)c1NC(=O)CN1CCCC1c1c(C)nn(C)c1C (stereo not drawn) | 1.54%
COc1ccccc1CC(=O)N1CCCC(c2cc(C)[nH]n2)C1 (stereo not drawn) | 3.02%
COc1cc(Cl)ccc1C(=O)N1CCCC(c2cc(C)[nH]n2)C1 (stereo not drawn) | 36.1%

Compound | cytotoxicity at 70.5 h
CC(NC(=O)CCOc1ccc(F)cc1)c1nnc2n1CCCCC2 (stereo not drawn) | 5.98%
CC(C)c1nc2n(n1)CC(NCc1nc(C3CC3)no1)CC2 (stereo not drawn) | -1.86%
c1cnnc(N2CCCC(NCc3cccc4c3OCCCO4)C2)c1 (stereo not drawn) | 0.746%
Cn1cnnc1C1CCCN(C(=O)COCc2ccccc2)C1 (stereo not drawn) | -2.8%
COCc1nc(C(=O)N2CCCC(n3nc(C)nc3C)C2)cs1 (stereo not drawn) | 28.1%
Cc1nc(C)n(C2CCCN(C(=O)c3ccn(C(C)C)n3)C2)n1 (stereo not drawn) | -6.2%
Cc1nc(C)n(C2CCCN(C(=O)c3cscn3)C2)n1 (stereo not drawn) | -2.85%
Cc1cnc(C(=O)N2CCCC(n3nc(C)nc3C)C2)cn1 (stereo not drawn) | -11.1%
COc1ncccc1CNC(=O)c1cc(C)on1 | -8.23%
CC(C)Oc1ncccc1CNC(=O)c1ccc(=O)[nH]n1 | -3.21%
COc1cccc(C(=O)N2CCCC(CNS(C)(=O)=O)C2)c1 (stereo not drawn) | -8.76%
Cc1cnc(C(=O)NCc2cccnc2OC(C)C)cn1 | 21%
Cc1ncsc1C(=O)NCCNc1ncccc1C#N | -8.88%
CCc1nc(C)c(C(=O)NCCNc2ncccc2C#N)s1 | 19.3%
Cn1ncc2c1CCCC2NCc1cccc(OC2CCCC2)c1 (stereo not drawn) | -5.51%
CC(C)Oc1ncccc1CNC(=O)c1cc(C2CC2)on1 | 16%
COc1ccnc(N2CCN(C(=O)c3ccc(Cl)o3)CC2)n1 | -4.43%
COc1cc(C)nc(N2CCN(C(=O)c3ccoc3C)CC2)n1 | -6.48%
Cc1ccc2cc(C(=O)N3CCC(Nc4cccnn4)CC3)[nH]c2c1 | 21.4%
Cc1cccc2[nH]cc(CC(=O)N3CCC(Nc4cccnn4)CC3)c12 | 0.978%
O=C(Cc1noc2ccccc12)N1CCC(Nc2cccnn2)CC1 | -5.81%
O=C(Cc1cccc2ccccc12)N1CCC(Nc2cccnn2)CC1 | -7.06%
CC(=O)Nc1nc(CN(C)C2CCCN(c3cccnn3)C2)cs1 (stereo not drawn) | -13.5%
CN(Cc1cnn(-c2ccccc2)n1)C1CCCN(c2cccnn2)C1 (stereo not drawn) | -12.2%

Compound | cytotoxicity at 70.5 h
Cc1nc(C)n(C2CCCN(C(=O)c3c[nH]c(C(C)C)n3)C2)n1 (stereo not drawn) | -11.1%
Cc1nccn1C1CCCN(C(=O)c2cccc(S(C)(=O)=O)c2)C1 (stereo not drawn) | -11.1%
O=C(CCCn1cncn1)N1CCCC1c1noc(C2CC2)n1 (stereo not drawn) | -3.05%
COCCCNC(=O)c1c(C)noc1C(C)C | -11.8%
CC(O)(CN1CCN(CCO)CC1)c1cccc(C(F)(F)F)c1 (stereo not drawn) | 14.6%
CCc1nccn1C1CCCN(C(=O)c2csc(C3CC3)n2)C1 (stereo not drawn) | -22%
CCN1CCOC(CNCc2csc(C)n2)C1 (stereo not drawn) | -14.2%
Cc1nccn1C1CCCN(C(=O)c2cccc(-n3cccc3)c2)C1 (stereo not drawn) | 11.6%
Cc1cc(C)n(CC2CCCN2C(=O)c2cc[nH]n2)n1 (stereo not drawn) | -1.3%
Cc1cc(C)n(C2CN(CC(=O)N3CCOCC3)C2)n1 | 4.72%
Cc1cc(C)n(C2CN(CC(=O)NCC(C)(C)N3CCOCC3)C2)n1 | 0.262%
Cc1ccoc1C(=O)NC1CCN(Cc2csc3c(F)cccc23)CC1 | 18.8%
CC(C)C(=O)NC1CCN(Cc2cccc3c2OCCO3)CC1 | -1.98%
c1ccc(OCCCNCCn2cccn2)cc1 | -0.836%
CCc1nc(CN(Cc2cccs2)CC2CCCO2)no1 (stereo not drawn) | 1.39%
Cc1cnn(C2CCCN(C(=O)c3ccnc(N(C)C)c3)C2)c1 (stereo not drawn) | 28.8%
Cc1cnn(C2CCCN(C(=O)c3cccc(Cn4ccnc4)c3)C2)c1 (stereo not drawn) | 20.1%
CSc1ncccc1C(=O)NCc1ccc(CS(=O)(=O)NC(C)C)cc1 | 2.32%
COc1ccc(OC)c(NC(=O)NCC(O)c2ccc(F)c(F)c2)c1 (stereo not drawn) | 9.62%
O=C(NCCNc1cnccn1)C1CCN(C(=O)N2CCCC2)CC1 | 2.17%
COc1ncccc1NC(=O)NCC(O)c1ccc(F)cc1F (stereo not drawn) | -1.05%
CS(=O)(=O)Cc1ccc(CNC(=O)c2cccnc2O)cc1 | 9.83%
Cc1cc(C)c(CNC(=O)N2CCCC2C(N)=O)c(=O)[nH]1 (stereo not drawn) | -4.33%
CC(C)NC(=O)Cn1cc(-c2ccccc2)cn1 | 1.95%

Compound | cytotoxicity at 70.5 h
O=C(NCCNc1cnccn1)N1CCCC1 | 5.69%
CC(C(=O)N1CCN(c2cnccn2)CC1)n1cncn1 (stereo not drawn) | -4.32%
CC(=O)NC(C)(C)C(=O)Nc1ncc(Cc2ccc(C)c(F)c2)s1 | -0.712%
Cc1cc(C)n(C2CCCN(C(=O)CCCNc3ncccn3)C2)n1 (stereo not drawn) | 27.5%
Cc1cnn(CC2CCCCN2CCC(=O)Nc2cc(C)on2)c1 (stereo not drawn) | 4.06%
CC(C)c1n[nH]c(C2CN(C(=O)CCn3ccccc3=O)CCO2)n1 (stereo not drawn) | -2.51%
Cc1ccc(N2CCCC(NCC(=O)NC3CCOCC3)C2)nn1 (stereo not drawn) | -3.6%
CCNC(c1ccc(OC)cc1)c1cccnc1 (stereo not drawn) | -8.14%
Cc1nn(C)c(Cl)c1C1CCCN1CC(=O)NCc1ccccn1 (stereo not drawn) | -7.66%
c1ccc2cc(OCCN3CCOC(Cn4cncn4)C3)ccc2c1 (stereo not drawn) | 27.8%
Cc1nc(C(=O)N2CCCC(n3cncn3)C2)cs1 (stereo not drawn) | -3.83%
CC(C)N1CCC(CNCc2c[nH]nc2C(C)(C)C)C1 (stereo not drawn) | -0.871%
Cc1ccc(N2CCCC(NCc3ccsc3)C2)nn1 (stereo not drawn) | -4.89%
O=C(CCOCc1ccccc1)N1CCCC1c1noc(C2CC2)n1 (stereo not drawn) | -2.09%
Cc1ccc(NC2CCN(C(=O)Cc3cccc(F)c3)CC2)nn1 | -4.83%
Cc1nc(C)n(CC2CCCN(Cc3nc(C4CC4)no3)C2)n1 (stereo not drawn) | -1.73%
Cc1nc(C)n(CC2CCCN(c3ncnc4sccc34)C2)n1 (stereo not drawn) | 29.9%
COCCc1noc(CN2CCCC(Cn3nc(C)nc3C)C2)n1 (stereo not drawn) | 2.6%
O=C(CCc1cscn1)N1CCCC1c1noc(C2CC2)n1 (stereo not drawn) | -15.3%
CCn1cnnc1CNC(=O)N(C)Cc1ccc(F)c(F)c1 | -5.87%
CN(CCCc1ccccc1)Cc1nc2c(cnn2C)c(=O)[nH]1 | -5.07%
COCCN(Cc1nc2c(cnn2C)c(=O)[nH]1)Cc1ccco1 | -7.8%
CCOc1cccc2c1OCC(C(=O)NS(=O)(=O)Cc1ccccc1)=C2 | 1.24%
COCCOc1ccccc1CNCc1c(C)nn(C)c1N(C)C | -0.188%

Compound | cytotoxicity at 70.5 h
CCOC1CCN(C(=O)c2cnn(-c3ccccc3Cl)c2)CC1 | 2.04%
O=C(c1cnc(C2CC2)s1)N1CCCC(n2cccn2)C1 (stereo not drawn) | -2.13%
c1ccc2sc(N3CCOC(Cn4cccn4)C3)nc2c1 (stereo not drawn) | 3.57%
Cc1cnn(C2CCCN(C(=O)c3cn4cccnc4n3)C2)c1 (stereo not drawn) | -3.94%
Cc1ccc(NC2CCN(C(=O)Cc3ccc(C#N)cc3)CC2)nn1 | -1.55%
CN(c1ccc(F)c(F)c1)S(=O)(=O)c1cc(C(=O)O)cs1 | -6.55%
CN(c1ccc(C(C)(C)C)cc1)S(=O)(=O)c1cc(C(=O)O)cs1 | -10.9%
CCN(CC)Cc1ccc(C(=O)N2CCN(CC(C)O)CC2)cc1 (stereo not drawn) | -4.2%
Cc1nccn1CCCC(=O)N1CCC(Nc2cccnn2)CC1 | 5.36%
c1ccc2sc(CN3CCOC(Cn4cncn4)C3)nc2c1 (stereo not drawn) | -4.62%
Cc1nccn1CC1CCCN1CCCc1nc(-c2cccs2)no1 (stereo not drawn) | 9.19%
Cc1ccc(C)c(NC(=O)N(C)Cc2cnn(C)c2)c1 | -3.32%
CN(Cc1nnc2n1CCC2)C(=O)NCCc1ccc2c(c1)OCO2 | -11.6%
CN(Cc1nnc2n1CCC2)C(=O)Cc1ccc2c(c1)OCCO2 | -4.37%
O=C1OCCC1N1CCN(C(=O)Cc2c[nH]c3ccccc23)CC1 (stereo not drawn) | 7.81%
CC1CCCCN1CCNC(=O)c1ccn(-c2ccc(F)cc2)n1 (stereo not drawn) | 35.6%
O=C(CCC1CCCO1)NS(=O)(=O)c1ccc(Cl)cc1 (stereo not drawn) | -5.11%
CCC(C)NC(=O)NCCCn1nc2ccccn2c1=O (stereo not drawn) | -9.52%
O=C(NCCNc1ncccn1)c1ccc(-c2ccco2)[nH]c1=O | -2.56%
Cc1csc(N2CCN(C(=O)Cc3ccsc3)CC2)n1 | 31.2%
Cc1csc(N2CCN(C(=O)CCc3ccccn3)CC2)n1 | -2.58%
Cc1csc(N2CCN(C(=O)CCc3nccs3)CC2)n1 | -2.43%
